In paper PMC11053168, “Agonist-selective activation of individual G-proteins by muscarinic receptors” (Scientific Reports, 2024):

Target: T1, M2 receptor (Homo sapiens, UniProt P08172)
T1 sequence (P08172 1-466): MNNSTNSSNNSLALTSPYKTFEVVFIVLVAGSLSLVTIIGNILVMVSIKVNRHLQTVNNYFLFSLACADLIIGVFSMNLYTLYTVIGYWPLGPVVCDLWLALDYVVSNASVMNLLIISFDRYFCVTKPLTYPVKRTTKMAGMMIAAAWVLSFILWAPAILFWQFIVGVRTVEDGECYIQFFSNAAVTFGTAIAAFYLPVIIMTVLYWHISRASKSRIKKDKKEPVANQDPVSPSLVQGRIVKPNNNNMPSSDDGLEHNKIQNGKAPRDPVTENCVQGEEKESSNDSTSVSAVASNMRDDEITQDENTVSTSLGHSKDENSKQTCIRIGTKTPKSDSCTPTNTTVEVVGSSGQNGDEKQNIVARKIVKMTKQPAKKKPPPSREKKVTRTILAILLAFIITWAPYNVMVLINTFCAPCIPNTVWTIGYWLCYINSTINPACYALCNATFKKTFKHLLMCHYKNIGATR
Experiment: Agonist-stimulated GTPγ[35S] binding to Sf9 membranes expressing M2 receptor and individual Gαi/o
Type: biochemical
Parameters: host or cells: Sf9 insect cells, baculovirus (pFastBac1 / Bac-to-Bac); membranes
Details: for Activation of individual Gi/o Gα types: M2 with GαoA, GαoB, Gαi1, Gαi2, Gαi3; for Operational efficacy lower than the efficacy of CBC: at GαoA and GαoB; for Signalling bias among Gαi/o relative to CBC: RAi / bias factor, CBC reference
Method: Baculoviral stocks for expression of M2 receptor and individual Gα-subunits of Gi/o G-proteins (GαoA, GαoB, Gαi1, Gαi2, Gαi3) in SF9 cells were generated according to Bac-to-Bac® baculovirus expression system—user guide (https://assets.thermofisher.com/TFS-Assets/LSG/manuals/MAN0000414_BactoBacExpressionSystem_UG.pdf). […] After 96 h at 27 °C, baculoviral viral particles released into the medium were harvested. After centrifugation at 500×g for 10 min to remove detached cells and cell debris, baculoviral stock P0 was ready for amplification. Suspension of Sf9 cells at density 2 × 10^6 cells per ml was infected by baculoviral stock P0 in ratio 1:1000 and after 72 h of growth (in a shaking incubator at 135 rpm and 27 °C) the amplified baculoviral stock P1 was harvested. The cell suspension was centrifugated at 500×g for 10 min to remove cells and cell debris and the supernatant containing a high level of baculoviral particles P1 was collected. FBS to the concentration of 0.5% was added and the stock was stored at 4 °C, protected from light for up to 6 months. For the quantification of baculoviral particles, a plaque assay was used.
Cells were grown in suspension culture in 250 ml Erlenmeyer flasks in Sf-900™ III serum-free medium in an aerated shaking incubator at 27 °C and 135 rpm. Cells were maintained at the density of 1–4 × 10^6 cells per ml. Sf9 cells at the density 2 × 10^6 were co-infected with baculoviral stock for the M2 receptor and a particular Gi/o Gα in the ratio (1:10). […] Infected cells were harvested by centrifugation 1000×g for 10 min. Cell pellets were kept at − 80 °C.
Membranes were prepared as described previously by Randakova et al.[33]. Cells harvested from twenty 100 mm petri dishes (CHO) or 30 ml of cell suspension (Sf9) were suspended in 20 ml of ice-cold incubation medium (100 mM NaCl, 20 mM Na-HEPES, 10 mM MgCl2, pH 7.4) supplemented with 10 mM EDTA and homogenized on ice by two 30‐s strokes using a Polytron homogenizer (Ultra-Turrax; Janke & Kunkel GmbH & Co. KG, IKA-Labortechnik, Staufen, Germany) with a 30 s pause between strokes. Cell homogenates were centrifuged for 5 min at 1000×g to remove whole cells and cell nuclei. The resulting supernatants were centrifuged for 30 min at 30,000×g. Pellets were suspended in a fresh incubation medium, incubated on ice for 30 min, and centrifuged again. The resulting membrane pellets were kept at − 80 °C until assayed within 10 weeks.
Agonist stimulated GTPγ[^35S]binding to membranes from Sf9 cells expressing the M2 receptors in a combination with α-subunit of given Gi/o type (GαoA, GαoB, Gαi1, Gαi2, Gαi3) was measured in 96-well plates in a final volume of 200 µl of incubation medium described above containing 500 pM of GTPγ[^35S] […] Nonspecific binding was determined in the presence of 1 µM nonlabelled GTPγS. Incubations were terminated and processed as described above. Parameters of functional response were calculated according to Eq. (3) after subtraction of non-specific binding.
The basal value of GTPγ[^35S] binding was determined in the absence of the agonist. After subtraction of non-specific binding determined in the presence of 10 μM nonlabelled GTPγS, GTPγ[^35S]binding was divided by the basal value and expressed as folds over basal. […] Then Eq. (3) was fitted to the data using GraphPad. Obtained EMAX and EC50 values were used to calculate RAi values using Eq. (7). To determine τ and KA of the functional responses system EMAX was determined as described earlier. Basal values were subtracted and functional responses were expressed as fractions of system EMAX. […] Obtained τ and KA values were used to calculate the bias factor according to Eq. (8), see below, for each experiment.
Equation (4) was fitted to data by the two-step procedure described earlier[61]

GTPγ[35S] binding signal (M2 + Gi1)	GTPγ[35S] binding signal relative to the detection limit (M2 + GoA)	SMILES	GTPγ[35S] binding signal at Gi1 as % of GoA (M2 + Gi1 vs M2 + GoA)	Activation of individual Gi/o Gα types	Operational efficacy lower than the efficacy of CBC	Signalling bias among Gαi/o relative to CBC (M2)	Bias GoA vs GoB (M2, relative to carbachol)
–	–	C[N+](C)(C)CCOC(N)=O [CBC, carbachol, reference compound]	62%	activated all Gi/o types	–	–	–
–	–	c1csc(C[N+]23CCC(CC2)CC3)c1 [JB-8A]	–	activated GαoA and GαoB only	20–30 ×	–	–
–	–	C[N+]1(Cc2cccs2)CCOCC1 [JB-12-2]	–	activated all Gi/o Gα	–	biased to GαoA	more than 5 fold
–	–	COC(=O)C1=CCCN(Cc2cccs2)C1 [JB-13-1]	–	activated all Gi/o Gα	–	biased to Gαi3	–
no signal	more than 20 fold	C[N+]1(Cc2cccs2)CC=CCC1 (centres unmarked) [JR-6, 1-methyl-1-[(thiophen-2-yl)methyl]-1,2,3,6-tetra hydropyridin-1-ium]	–	activated GαoA and GαoB only	approx 10 ×	absolute selectivity to Gαo with a preference for GαoB	–
–	–	C[N+]1(Cc2ccc(Cl)s2)CC=CCC1 (centres unmarked) [PN-152, 1-[(5-chlorothiophen-2-yl)methyl]-1-methyl-1,2,3,6-tetrahydropyridin-1-ium]	–	activated GαoA and GαoB only	~15 ×	absolute selectivity to Gαo with a preference for GαoB	–
